# Experimental data as given in patent US20250161299A1, “ORAL PCLX-001 IN THE TREATMENT OF HUMAN CANCER” (PACYLEX PHARMACEUTICALS INC., priority 2022, published 2025).
# Entries after “also recorded” stand apart in the source; their conditions may differ.
# Assays:
# [1] = Phase I trial toxicity assessment (dose limiting toxicities, CTCAE version 5.0); type: in vivo, human; details: for hematopoietic profile and biochemistry / protocol defined dose limiting toxicities: 20 mg oral daily
# Method: The subjects were assessed for toxicity using daily diary entries, clinical assessments at baseline, day 8, day 15, day 22, and day 28. Dose limiting toxicities were DLTs defined as the following cycle 1 CTCAE version 5.0 adverse events: Gr 4 platelets, Gr≥3 platelets with bleeding and/or transfusions, Gr 4 ANC for ≥7 days, Gr≥3 febrile neutropenia, and Gr≥3 non-hematological toxicity.
# [2] = tested on: Brain cultured human cancer cells; details: second panel, mean among sensitive cell lines, read-out: IC50 mean +/− SD; cited from earlier work
# kinases (KINOMEscan) = details: KINOMEscan (Fremont, CA, USA); cited from earlier work
# implanted human tumors = details: cited from earlier work
# human NMT2 = human NMT2 (Homo sapiens, UniProt O60551); assay: Inhibition of N-myristoyltransferase NMT2; type: biochemical
# Chain of human NMT2 (O60551 whole entry): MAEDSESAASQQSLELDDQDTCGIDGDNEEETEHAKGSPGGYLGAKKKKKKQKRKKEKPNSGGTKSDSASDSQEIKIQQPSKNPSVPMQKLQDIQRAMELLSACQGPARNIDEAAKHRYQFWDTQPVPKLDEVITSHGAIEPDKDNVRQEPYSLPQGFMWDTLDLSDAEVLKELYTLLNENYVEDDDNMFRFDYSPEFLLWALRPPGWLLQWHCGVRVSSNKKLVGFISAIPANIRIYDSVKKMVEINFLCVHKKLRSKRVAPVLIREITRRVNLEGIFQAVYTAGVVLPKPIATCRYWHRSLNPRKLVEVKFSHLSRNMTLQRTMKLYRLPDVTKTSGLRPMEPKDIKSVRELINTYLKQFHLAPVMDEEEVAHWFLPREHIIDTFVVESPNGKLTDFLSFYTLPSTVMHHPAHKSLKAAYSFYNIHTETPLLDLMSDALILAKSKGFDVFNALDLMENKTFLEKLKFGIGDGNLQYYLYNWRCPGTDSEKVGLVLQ
# [3] = PK and maximally tolerated dose, daily oral administration, dog
# [4] = tested on: Breast cultured human cancer cells; details: mean among sensitive cell lines, cited from earlier work
# [5] = tested on: Bladder cultured human cancer cells; details: mean among sensitive cell lines (EC50<500 nM or IC50<500 nM), cited from earlier work
# [6] = Animal (GLP) non-clinical safety testing; type: in vivo
# From the text: PCLX-001 (FIG. 1) is a potent, small molecule inhibitor of human NMT1 and NMT2 proteins.
# [7] = Phase I trial plasma pharmacokinetics, two-compartment model (PK Solver 2.0); type: in vivo; details: human, oral, 20 mg
# Method: A different pharmacokinetic modeling program was used in the publication PK Solver 2.0 freeware (https://www.boomer.org/boomer/software/pksolver.zip; accessed 26 Nov. 2021) was used to determine the single dose pharmacokinetic parameters using a two-compartment model. […] As noted above, non-compartmental pharmacokinetic analysis was performed using Phoenix WinNonlin 8.3 using trapezoidal rule and linear up log down methodology. WinNonlin was allowed to pick optimal terminal phases.
# Pharmacokinetic analysis was conducted as described above. […] These parameters are all supportive of a single daily oral dosing schedule for PCLX-001.
# [8] = tested on: Neuroblastoma cultured human cancer cells; details: second panel, mean among sensitive cell lines, read-out: IC50 mean +/− SD; cited from earlier work
# in vivo = details: dog, plasma, po
# hERG = hERG (Homo sapiens, UniProt Q12809); assay: Preclinical hERG interaction testing
# Chain of hERG (Q12809 whole entry): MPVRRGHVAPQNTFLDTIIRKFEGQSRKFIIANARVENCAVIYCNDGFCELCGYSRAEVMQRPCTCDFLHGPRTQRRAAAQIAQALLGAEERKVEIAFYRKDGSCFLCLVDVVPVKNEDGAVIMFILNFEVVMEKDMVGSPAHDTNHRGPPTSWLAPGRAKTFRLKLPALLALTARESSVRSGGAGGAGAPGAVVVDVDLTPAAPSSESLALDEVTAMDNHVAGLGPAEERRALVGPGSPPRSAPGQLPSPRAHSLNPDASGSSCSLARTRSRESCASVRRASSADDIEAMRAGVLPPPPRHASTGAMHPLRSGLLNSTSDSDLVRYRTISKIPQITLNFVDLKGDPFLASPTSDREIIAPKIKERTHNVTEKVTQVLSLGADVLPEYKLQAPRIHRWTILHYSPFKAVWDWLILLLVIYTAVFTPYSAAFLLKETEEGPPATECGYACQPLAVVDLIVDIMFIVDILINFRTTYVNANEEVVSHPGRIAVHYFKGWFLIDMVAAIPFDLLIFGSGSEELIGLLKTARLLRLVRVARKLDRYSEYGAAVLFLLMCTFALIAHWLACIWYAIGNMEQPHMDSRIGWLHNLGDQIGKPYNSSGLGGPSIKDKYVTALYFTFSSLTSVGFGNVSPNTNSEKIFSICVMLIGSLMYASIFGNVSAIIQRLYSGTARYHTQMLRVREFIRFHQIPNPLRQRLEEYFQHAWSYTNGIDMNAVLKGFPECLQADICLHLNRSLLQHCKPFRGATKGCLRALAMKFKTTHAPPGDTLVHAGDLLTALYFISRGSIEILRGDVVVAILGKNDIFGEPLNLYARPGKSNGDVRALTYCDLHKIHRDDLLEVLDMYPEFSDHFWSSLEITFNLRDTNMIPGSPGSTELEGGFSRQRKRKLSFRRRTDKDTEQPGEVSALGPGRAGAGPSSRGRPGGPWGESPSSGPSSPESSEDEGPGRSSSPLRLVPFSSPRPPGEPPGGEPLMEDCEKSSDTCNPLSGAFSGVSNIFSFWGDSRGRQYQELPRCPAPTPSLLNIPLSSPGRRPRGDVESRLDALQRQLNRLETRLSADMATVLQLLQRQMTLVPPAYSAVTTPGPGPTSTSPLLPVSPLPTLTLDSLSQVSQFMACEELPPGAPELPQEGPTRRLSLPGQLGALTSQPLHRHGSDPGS
# [9] = tested on: Ovary cultured human cancer cells; details: second panel, mean among sensitive cell lines, read-out: IC50 mean +/− SD; cited from earlier work
# [10] = first panel, read-out: EC50 mean +/− SD
# [11] = second panel, read-out: IC50 mean +/− SD
# [12] = Table 1B third line, Patient 115-002-001, Day 15 as printed
structure (smiles),measurement,setting,value
"Cc1c(NS(=O)(=O)c2c(Cl)cc(-c3ccnc(N4CCNCC4)c3)cc2Cl)c(CC(C)C)nn1C [PCLX-001, 2,6-dichloro-N-(3-isobutyl-1,5-dimethyl-1H-pyrazol-4-yl)-4-(2-(piperazin-1-yl)pyridin-4-yl)benzene sulfonamide]",hematopoietic profile and biochemistry,[1]; Patient 1,remained normal; also recorded: no evidence of toxicity
same,protocol defined dose limiting toxicities,"[1]; Patient 1, 28 day cycle",did not experience any dose limiting toxicities; also recorded: no protocol defined dose limiting toxicities
same,hematopoietic profile and biochemistry,[1]; Patient 2,remained normal
same,protocol defined dose limiting toxicities,[1]; Patient 2,no protocol defined dose limiting toxicities
same,drug related toxicities,"[1]; Patient 3, daily PCLX-001, two 28 day cycles",No drug related toxicities were identified
same,IC50,[2],153 ± 63.5 nM
same,off target kinase inhibition,kinases (KINOMEscan),no significant off target kinase inhibition
same,anticancer activity in mice bearing human cancers,implanted human tumors; 10 mg/kg or lower,no evident anticancer activity
same,anti-cancer effects in mice with implanted human tumors,implanted human tumors; 35 mg/kg and higher doses,had anti-cancer effects
same,response of human cancers grown in immunodeficient mice,implanted human tumors; preclinical studies,complete remissions
same,inhibition of human NMT2,human NMT2,potent
same,Maximally Tolerated Dose daily oral administration,[3],4 mg/kg
same,EC50,[4]; [10],101 ± 96.4 nM
same,IC50,[4]; [11],161 ± 47.9 nM
same,EC50,[5]; [10],155 ± 49.7 nM
same,IC50,[5]; [11],172 ± 79.8 nM
same,cardiac conduction,[6],no cardiac conduction issues
same,AUC(0-inf),"[7]; Table 1B fourth line, Patient 115-002-001, Day 15",2640 ng·h/mL
same,AUC(0-inf),[7]; [12],2360 ng·h/mL
same,AUC(0-t),[7]; [12],1700 ng·h/mL
same,Cmax,[7]; [12],278 ng/mL
same,half-life,[7]; [12],16.4 h
same,IC50,[8],230 ± 183 nM
same,Cmax,in vivo,650 ng/mL
same,half-life,in vivo,3.8 h
same,hERG interaction,hERG,no significant hERG interaction
same,IC50,[9],76.7 ± 7.6 nM
